Experimental data from patent US20260256753A1, “USE OF AN OREXIN 2 RECEPTOR AGONIST FOR IMPROVING RESPIRATORY FUNCTION DURING SLEEP” (TAKEDA PHARMACEUTICAL COMPANY LIMITED, priority 2023, published 2026).

Key:
Assay type in all cases: cell-based
hypoglossal motoneurons = experiment: Electrophysiologic recording of hypoglossal motoneurons in rat medullary slices; settings: whole cell patch clamp, versus vehicle control, FIG. 3
Description: (§1) Neonatal rats (postnatal day 1-10) were decapitated and the neuraxis was isolated in a chamber filled with oxygenated artificial cerebrospinal fluid solution (ACSF, in mM: NaCl 125, KCl 2.5, MgCl2 1, CaCl2 2, NaHCO3 25, NaH2PO4 1.25, glucose 25, pH 7.4). The cerebellum was removed, and the brainstem was mounted in the vibratome (VT 1000S; Leica, Milan, Italy) chamber filled with oxygenated gluconate cutting solution (in mM: Kgluconate 130, KCl 15, EGTA 0.2, HEPES 20, glucose 25, kynurenic acid 2, pH 7.4). Transverse medullary slices containing the pre-Bötzinger complex and hypoglossal nucleus were cut (400-600 μm thick). The slices were transferred at room temperature for 1 min in an oxygenated mannitol cutting solution (in mM: D-mannitol 225, glucose 25, KCl 2.5, NaH2PO4 1.25, NaHCO3 26, CaCl2 0.8, MgCl2 8, kynurenic acid 2, pH 7.4). Slices were then transferred in ACSF solution at 30° C. for 30 min and at room temperature for 30 min. At least 30 min prior to the start of recording, each slice was transferred in the recording solution in which the concentration of K+ was raised to 9 mM and that of Mg2+ was decreased to 0.5 mM to ensure the production of long-term and stable rhythm. […] Signals were acquired using Clampex 10.6 software (Axon, Molecular Devices, CA, USA) at a sampling rate of 10-20 kHz and filtered at 2-10 kHz using an 8-pole Bessel filter built within the software and analyzed using Clampfit 10.6 software (pClamp 10.6; Axon, Molecular Devices). […] Bursts were then automatically detected, and burst frequency was measured.
(§2) To evaluate the effects of vehicle (0.1% DMSO) on neuronal activities, after 5 min of stabilization, the neuronal activities under basal condition was recorded for 2-12 min, followed by recording in the presence of vehicle (0.1% DMSO) for 30 min. […]

[1] = test system: neurons in the pre-Bötzinger complex; experiment: Electrophysiologic recording of neurons in the pre-Bötzinger complex in rat medullary slices; settings: whole cell patch clamp, versus vehicle (0.1% DMSO) control, FIG. 1
Description: as §1, §2

phrenic motoneurons = experiment: Electrophysiologic recording of phrenic motoneurons in rat isolated brainstem-spinal cord preparations; settings: C3-5 ventral root, versus vehicle control, FIG. 2
Description: Neonatal (postnatal day 1-4) rats were decapitated, and the brainstem-spinal cord was dissected in a bath containing ACSF. The cerebellum and pons were ablated. At least 30 min prior to the start of recording, the tissue was transferred in the recording solution in which the concentration of K+ was raised to 5 mM and that of Mg2+ was decreased to 0.5 mM to ensure production of long-term and stable rhythm (modified ACSF, in mM: NaCl 125, MgCl2 0.5, KCl 5, CaCl2 1, NaHCO3 25, NaH2PO4 1.25, glucose 30, pH 7.4). The tissues were glued on coverslips and transferred to a recording chamber and continuously perfused at 27±2° C. with mACSF at a flow rate of 2.3±0.2 mL/min. Activity of phrenic motoneurons was measured in electrophysiological recordings from C3-5 ventral root, outputs of phrenic motoneurons (J. J. Greer, J. C. Smith, J. L. Feldman, Respiratory and locomotor patterns generated in the fetal rat brain stem-spinal cord in vitro, J Neurophysiol 67 (4) (1992) 996-9; J. C. Smith, J. J. Greer, G. S. Liu, J. L. Feldman, Neural mechanisms generating respiratory pattern in mammalian brain stem-spinal cord in vitro. I. Spatiotemporal patterns of motor and medullary neuron activity, J Neurophysiol 64 (4) (1990) 1149-69), using a glass suction electrode. […] The rectification and integration was used for quantification of the activities of phrenic motoneurons because the spontaneous bursts detected in voltage signals are consisting of multiple positive and negative voltages from baseline (T. Sugita, et al.). […] Bursts were then automatically detected, and burst frequency was measured.
To evaluate the effects of vehicle (0.1% DMSO) on neuronal activities, after 5 min of stabilization, the neuronal activities under basal condition were recorded for 2-20 min, followed by recording with vehicle (0.1% DMSO) for 30-40 min. […] As vehicle (0.1% DMSO) had no significant effects on burst frequency of phrenic neurons, potential of drugs was assessed under vehicle (0.1% DMSO). […]

COC(=O)N1CCC[C@H](NS(C)(=O)=O)[C@@H]1CO[C@H]1CC[C@@H](c2ccccc2)CC1 (relative stereo) [Compound A, methyl(2R,3S)-3-((methylsulfonyl)amino)-2-(((cis-4-phenylcyclohexyl)oxy)methyl) piperidine-1-carboxylate]
increased burst frequency: burst frequency of hypoglossal motoneurons (hypoglossal motoneurons) | burst frequency in neurons in the pre-Bötzinger complex [1] | burst frequency of phrenic motoneurons (phrenic motoneurons)

CC(C)(O)C(=O)N1CC(F)(F)[C@H](NS(C)(=O)=O)[C@@H]1Cc1cccc(-c2cc(F)cc(F)c2)c1F [Compound C, N-{(2S,3R)-4,4-difluoro-1-(2-hydroxy-2-methylpropanoyl)-2-[(2,3′,5′-trifluoro[1,1′-biphenyl]-3-yl)methyl]pyrrolidin-3-yl}methanesulfonamide]
increased burst frequency: burst frequency of hypoglossal motoneurons (hypoglossal motoneurons) | burst frequency in neurons in the pre-Bötzinger complex [1] | burst frequency of phrenic motoneurons (phrenic motoneurons)
